Source: paper PMC9256669, “Monomethyl auristatin antibody and peptide drug conjugates for trimodal cancer chemo-radio-immunotherapy” (Nature Communications, 2022)
Where “and” joins values, the source holds several entries; their conditions need not be identical. Identical values can stand only once. Like-named read-outs stand apart in the source and are kept apart here. Non-standard residues stand in square brackets, D forms with d. Residues, ends and D or L forms follow the SMILES beside them. *: point of attachment. Dolaproine = CO[C@@H]([C@@H]1CCCN1)[C@@H](C)C(=O)O; Dil = CC[C@H](C)[C@H](NC)[C@@H](CC(=O)O)OC; X1 = C[C@@H](N*)[C@@H](O)c1ccccc1; NMeV = CN[C@H](C(=O)O)C(C)C

Columns and labels:
[1] = tested on: orthotopic oral 4MOSC1 tumors; assay: Trimodal therapy: ACPP-MMAE, IR and anti-PD-1 antibody; format: in vivo, C57BL/6 mice; conditions: Figure 5c; individual mice, one line per mouse
Source text: (§1) Orthotopic tongue xenograft tumors were established in 6-week-old NOD SCID mice by injecting 150,000 CAL27 parental (WT) or PIK3CA H1047R-expressing cells. […] On the last day of tumor xenograft measurements, mice were euthanized, tongues resected, imaged, and fixed. […] IR was delivered as 2 parallel opposed fields.

4MOSC1 tumors = assay: Orthotopic syngeneic tumor ACPP therapy, tumor volumes; format: in vivo, C57BL/6 mice; conditions: orthotopic 4MOSC1 tumors, conjugate monotherapy
Source text: as §1

MC38 tumors = conditions: status at the day printed in the same line, one line per mouse
Procedure: MOC1, B16, LL/2, and MC38 tumor cells were injected subcutaneously into the hindlimbs of 6-week-old female C57BL/6 albino mice in 100 µl of 1:1 Matrigel (BD) and PBS solution. Fractionated IR was delivered focally to the tumor-bearing hindlimbs (3 Gy to MC38 tumors and 5 Gy to LL/2 and B16 tumors) as indicated in figure legends using a PXI X-RAD 225 XL irradiator at maximal dose rate of 3 Gy/min with a beam-conditioning aluminum filter (Precision X-ray Irradiation). For RAG1 KO studies, 6-week-old female Rag1^tm1Mom mice were injected subcutaneously with tumor cells in their hindlimbs (Jackson Labs). For CD8 depletion studies, mice were i.p. injected with anti-CD8 (BioXCell #BE0117) at 10 mg/kg on days −6, −5 and −4 tumor cell implant and then weekly starting on day after tumor cells were injected or control antibody. […] Tumor volumes were measured and calculated using the formula as ½ * length * width^2. Mice were sacrificed when tumor volume reached >1500 mm^3, maximal tumor volume approved on our protocol for subcutaneous tumors.

[2] = tested on: MOC1, MOC2 and LL/2 tumors; conditions: immune-competent mice, not in HER3 negative LL/2 tumors
Procedure: (§2) All animal work was done in compliance with the University of California San Diego Institutional Animal Use and Care Committee under protocol #S15290. Mice were housed in individually ventilated and micro-isolator cages supplied with acidified water and fed 5053 irradiated PicoLab Rodent Diet 20. Temperature for laboratory mice in housing was 18–23 °C with humidity 40–60%. Housing room is maintained on a 12-h light/dark cycle. […] For imaging, mice were anesthetized (1:1 mixture of 100 mg/ml of ketamine and 5 mg/ml of midazolam). Animals were imaged using a Maestro Small Animal Imager (CRI) with excitation filter of 607/36 and 633 nm long pass emission filter with dichroic filter tuned to 670 nm for Cy5 images only. Imaging was done both with skin on and after skin removal to decrease autofluorescence and scattering. Exposure time for Cy5 signal capture for tumor models was as follows: CAL27 for 800 ms, MOC1 for 200 ms and MOC2 for 1500 ms.
(§3) Source data are provided in Source Data file.

[3] = tested on: CAL27 and Detroit 562 tumor xenografts; conditions: immune-deficient mice with HER3 expressing human tumor xenografts
Procedure: as §2, §3

[4] = Pilot dose studies of CDX3379-MMAE ADC (response to reviewers); format: in vivo
Procedure: compares to MMAE in immune-competent cancer models. We have now tested the hypothesis raised by the Reviewer head on and present new data (Fig. 3h). First, we successfully synthesized a CDX3379-MMAF ADC (Supplementary Figs. 2c & 2d). Then, we tested CDX3379-MMAE + IR to […] directly in B16 […]
these findings, we hypothesize that MMAE mediated bystander effects improve radiosensitized tumor control when compared to MMAF tumor cell radiosensitization and continue with MMAE as our lead radiosensitizing […]
Comment 2: “authors claim that in syngeneic model MMAE lacked therapeutic efficacy irrespective of the coupled tumor-directed delivery vehicle. However, comparison here is misleading, as they compare MMAE activity coupled to an antibody vs a penetrating peptide. Instead, in order to fully address the concept that auristatin MMAE has limited antitumor activity in a syngeneic model a more appropriate control should be used, that is a MMAE coupled to a different mAb targeting other antigen (receptor). In addition, this would reinforce the evidence about the potential of ADC therapy in combination with IR in immunocompetent mouse […]
Response: In principle, we agree with the sentiment raised by the Reviewer to have another ADC targeting a different cell surface receptor. […]

LL/2 cells = assay: Clonogenic survival with MMAE and 2 Gy (SF2); format: cell-based, murine; design: key: fraction surviving 2 Gy relative to non-irradiated cells
Procedure: Cells were treated with MMAE for 24 h and then irradiated with 2 Gy. […] Following IR, cells were counted, re-plated at varying cell numbers in drug free media. 10–14 days after initial seeding formed colonies were methanol fixed, stained with crystal violet, and counted. Surviving fraction at 2 Gy (SF2) was calculated as the fraction of cells surviving 2 Gy compared to non-irradiated cells. […]

Molecule: cyclo(RGD)fc-MC-HN-peg8-e9-oPLGC(Me)AG-r9-c-(MC-VC-PABC-MMAE)-CONH2 [ACPP-MMAE]
- Mouse survival: status at the day given (Mouse dead = 1, Mouse alive = 0) [1]: 1
- tumor growth (4MOSC1 tumors): modest tumor growth delay
- Mouse survival, status (MC38 tumors; ACPP-MMAE + IR + αPD1): 1 and 0
- Mouse survival, status (MC38 tumors; ACPP-MMAE + IR): 1

Molecule: CDX3379-MMAE: anti-HER3 antibody CDX3379 with 4 MMAE per antibody via MC-VC-PABC linker, labeled with Cy5
- localization of i.v. injected Cy5-labeled ADC [2]: localized to HER3 expressing murine syngeneic tumors
- localization of i.v. injected Cy5-labeled ADC [3]: localized to tumor bearing hindlimbs
- anti-tumor activity in pilot studies ([4]; 1 nmole CDX3379-MMAE): ineffective
- anti-tumor activity in pilot studies ([4]; 5 nmoles CDX3379-MMAE): anti-tumor activity

Molecule: CC[C@H](C)[C@@H]([C@@H](CC(=O)N1CCC[C@H]1[C@H](OC)[C@@H](C)C(=O)N[C@H](C)[C@@H](O)c1ccccc1)OC)N(C)C(=O)[C@@H](NC(=O)[C@@H](NC)C(C)C)C(C)C [MMAE, monomethyl auristatin E] (H-[NMeV]V[Dil][Dolaproine]-X1)
- SF2 (LL/2 cells; MMAE 1 nM with 2 Gy, replicate 1): 0.48
- SF2 (LL/2 cells; MMAE 1 nM with 2 Gy, replicate 2): 0.48
- SF2 (LL/2 cells; MMAE 1 nM with 2 Gy, replicate 3): 0.66
- SF2 (LL/2 cells; MMAE 1 nM with 2 Gy, replicate 4): 0.44
- SF2 (LL/2 cells; MMAE 1 nM with 2 Gy, replicate 5): 0.62
- SF2 (LL/2 cells; MMAE 1 nM with 2 Gy, replicate 6): 0.64
- SF2 (LL/2 cells; MMAE 2 nM with 2 Gy, replicate 1): 0.46
- SF2 (LL/2 cells; MMAE 2 nM with 2 Gy, replicate 2): 0.53
- SF2 (LL/2 cells; MMAE 2 nM with 2 Gy, replicate 3): 0.53
- SF2 (LL/2 cells; MMAE 2 nM with 2 Gy, replicate 4): 0.41
- SF2 (LL/2 cells; MMAE 2 nM with 2 Gy, replicate 5): 0.43
- SF2 (LL/2 cells; MMAE 2 nM with 2 Gy, replicate 6): 0.43
- SF2 (LL/2 cells; MMAE 3 nM with 2 Gy, replicate 1): 0.29
- SF2 (LL/2 cells; MMAE 3 nM with 2 Gy, replicate 2): 0.45
- SF2 (LL/2 cells; MMAE 3 nM with 2 Gy, replicate 3): 0.38
- SF2 (LL/2 cells; MMAE 3 nM with 2 Gy, replicate 4): 0.45
- SF2 (LL/2 cells; MMAE 3 nM with 2 Gy, replicate 5): 0.26
- SF2 (LL/2 cells; MMAE 3 nM with 2 Gy, replicate 6): 0.38
